Test results from PubChem BioAssay AID1963834 (Molecular Pharmacology Branch, DTP, NCI, 2024).

Tested on: 873145-292-R-J1-PDC complex spheroid viability
Experiment: Anticancer human tumor 873145-292-R-J1-PDC patient-derived renal clear cell carcinoma cell line growth inhibition [POLQ]
Conditions: for IC50: curve of first compound; for viability, T/C: stronger effect = lower value
Summary of the method: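 Complex spheroid viability model combining PDC tumour cells with endothelial (HUVEC) and MSC stromal cells. Novobiocin, ART-558 or RP6685 were tested singly and in combination with standard and investigational anticancer drugs. Each was titrated in half-log steps from near clinical Cmax, or from 10 microM where Cmax was unknown.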

[1] = second compound 0.0316 µM, first compound 0.00316 µM
[2] = second compound 0.0316 µM, first compound 0.01 µM
[3] = second compound 0.0316 µM, first compound 0.0316 µM
[4] = second compound 0.0316 µM, first compound 0.1 µM
[5] = second compound 0.1 µM, first compound 0.00316 µM
[6] = second compound 0.1 µM, first compound 0.01 µM
[7] = second compound 0.1 µM, first compound 0.0316 µM
[8] = second compound 0.1 µM, first compound 0.1 µM
[9] = second compound 0.316 µM, first compound 0.00316 µM
[10] = second compound 0.316 µM, first compound 0.01 µM
[11] = second compound 0.316 µM, first compound 0.0316 µM
[12] = second compound 0.316 µM, first compound 0.1 µM
[13] = second compound 1 µM, first compound 0.00316 µM
[14] = second compound 1 µM, first compound 0.01 µM
[15] = second compound 1 µM, first compound 0.0316 µM
[16] = second compound 1 µM, first compound 0.1 µM
[17] = second compound 3.16 µM, first compound 0.00316 µM
[18] = second compound 3.16 µM, first compound 0.01 µM
[19] = second compound 3.16 µM, first compound 0.0316 µM
[20] = second compound 3.16 µM, first compound 0.1 µM
[21] = second compound 10 µM, first compound 0.00316 µM
[22] = second compound 10 µM, first compound 0.01 µM
[23] = second compound 10 µM, first compound 0.0316 µM
[24] = second compound 10 µM, first compound 0.1 µM
[25] = second compound 0.0316 µM, first compound 0.316 µM
[26] = second compound 0.0316 µM, first compound 1 µM
[27] = second compound 0.1 µM, first compound 0.316 µM
[28] = second compound 0.1 µM, first compound 1 µM
[29] = second compound 0.316 µM, first compound 0.316 µM
[30] = second compound 0.316 µM, first compound 1 µM
[31] = second compound 1 µM, first compound 0.316 µM
[32] = second compound 1 µM, first compound 1 µM
[33] = second compound 3.16 µM, first compound 0.316 µM
[34] = second compound 3.16 µM, first compound 1 µM
[35] = second compound 10 µM, first compound 0.316 µM
[36] = second compound 10 µM, first compound 1 µM
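Note: spheroids exposed to compounds for 7 days before viability readout.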
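Throughout, for viability, T/C: luminescence signal used as surrogate for viable cell content; 100% = DMSO vehicle control viability.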

CC[C@@]1(O)C(=O)OCc2c1cc1n(c2=O)Cc2cc3c(CN(C)C)c(O)ccc3nc2-1 + Nc1ccc(C#CCN(C(=O)Cc2ncc(C(F)(F)F)cc2C(F)(F)F)c2ccc(F)cc2)nn1
IC50 (second compound 0.0316 µM): > 100 nM | IC50 (second compound 0.1 µM): > 100 nM | IC50 (second compound 0.316 µM): > 100 nM | IC50 (second compound 1 µM): > 100 nM | IC50 (second compound 3.16 µM): > 100 nM | IC50 (second compound 10 µM): > 100 nM | viability, T/C (second compound 0.0316 µM, first compound 0.000316 µM): 109% | viability, T/C (second compound 0.0316 µM, first compound 0.001 µM): 116% | viability, T/C [1]: 96.9% | viability, T/C [2]: 92% | viability, T/C [3]: 95.8% | viability, T/C [4]: 56.4% | viability, T/C (second compound 0.1 µM, first compound 0.000316 µM): 112% | viability, T/C (second compound 0.1 µM, first compound 0.001 µM): 107% | viability, T/C [5]: 107% | viability, T/C [6]: 107% | viability, T/C [7]: 99.3% | viability, T/C [8]: 52.7% | viability, T/C (second compound 0.316 µM, first compound 0.000316 µM): 104% | viability, T/C (second compound 0.316 µM, first compound 0.001 µM): 105% | viability, T/C [9]: 92% | viability, T/C [10]: 111% | viability, T/C [11]: 95.5% | viability, T/C [12]: 53.4% | viability, T/C (second compound 1 µM, first compound 0.000316 µM): 115% | viability, T/C (second compound 1 µM, first compound 0.001 µM): 99.2% | viability, T/C [13]: 98.6% | viability, T/C [14]: 91% | viability, T/C [15]: 106% | viability, T/C [16]: 59.6% | viability, T/C (second compound 3.16 µM, first compound 0.000316 µM): 114% | viability, T/C (second compound 3.16 µM, first compound 0.001 µM): 112% | viability, T/C [17]: 112% | viability, T/C [18]: 102% | viability, T/C [19]: 93.5% | viability, T/C [20]: 63.9% | viability, T/C (second compound 10 µM, first compound 0.000316 µM): 109% | viability, T/C (second compound 10 µM, first compound 0.001 µM): 111% | viability, T/C [21]: 124% | viability, T/C [22]: 119% | viability, T/C [23]: 103% | viability, T/C [24]: 63.2%

CNCc1ccc(-c2[nH]c3cc(F)cc4c3c2CCNC4=O)cc1 + Nc1ccc(C#CCN(C(=O)Cc2ncc(C(F)(F)F)cc2C(F)(F)F)c2ccc(F)cc2)nn1
IC50 (second compound 0.0316 µM): > 10000 nM | IC50 (second compound 0.1 µM): > 10000 nM | IC50 (second compound 0.316 µM): > 10000 nM | IC50 (second compound 1 µM): > 10000 nM | IC50 (second compound 3.16 µM): > 10000 nM | IC50 (second compound 10 µM): > 10000 nM | viability, T/C [3]: 99% | viability, T/C [4]: 92.8% | viability, T/C [25]: 89.1% | viability, T/C [26]: 87.7% | viability, T/C (second compound 0.0316 µM, first compound 3.16 µM): 95.5% | viability, T/C (second compound 0.0316 µM, first compound 10 µM): 103% | viability, T/C [7]: 107% | viability, T/C [8]: 105% | viability, T/C [27]: 83.5% | viability, T/C [28]: 88.9% | viability, T/C (second compound 0.1 µM, first compound 3.16 µM): 88.3% | viability, T/C (second compound 0.1 µM, first compound 10 µM): 92.8% | viability, T/C [11]: 97.3% | viability, T/C [12]: 95.8% | viability, T/C [29]: 88.6% | viability, T/C [30]: 92.4% | viability, T/C (second compound 0.316 µM, first compound 3.16 µM): 91.6% | viability, T/C (second compound 0.316 µM, first compound 10 µM): 89.2% | viability, T/C [15]: 102% | viability, T/C [16]: 92.9% | viability, T/C [31]: 102% | viability, T/C [32]: 94.7% | viability, T/C (second compound 1 µM, first compound 3.16 µM): 103% | viability, T/C (second compound 1 µM, first compound 10 µM): 90.4% | viability, T/C [19]: 100% | viability, T/C [20]: 104% | viability, T/C [33]: 108% | viability, T/C [34]: 95.4% | viability, T/C (second compound 3.16 µM, first compound 3.16 µM): 97.5% | viability, T/C (second compound 3.16 µM, first compound 10 µM): 100% | viability, T/C [23]: 109% | viability, T/C [24]: 104% | viability, T/C [35]: 103% | viability, T/C [36]: 100% | viability, T/C (second compound 10 µM, first compound 3.16 µM): 99.4% | viability, T/C (second compound 10 µM, first compound 10 µM): 105%

COc1cccc(OCCCN)c1-c1cc(Nc2cnc(C#N)cn2)n[nH]1 + Nc1ccc(C#CCN(C(=O)Cc2ncc(C(F)(F)F)cc2C(F)(F)F)c2ccc(F)cc2)nn1
IC50 (second compound 0.0316 µM): > 1000 nM | IC50 (second compound 0.1 µM): > 1000 nM | IC50 (second compound 0.316 µM): > 1000 nM | IC50 (second compound 1 µM): > 1000 nM | IC50 (second compound 3.16 µM): > 1000 nM | IC50 (second compound 10 µM): > 1000 nM | viability, T/C [1]: 94% | viability, T/C [2]: 94.2% | viability, T/C [3]: 76.3% | viability, T/C [4]: 66.6% | viability, T/C [25]: 74.3% | viability, T/C [26]: 73.2% | viability, T/C [5]: 91% | viability, T/C [6]: 98.2% | viability, T/C [7]: 74.8% | viability, T/C [8]: 71.8% | viability, T/C [27]: 65.4% | viability, T/C [28]: 71.1% | viability, T/C [9]: 95.5% | viability, T/C [10]: 97% | viability, T/C [11]: 67.7% | viability, T/C [12]: 66.6% | viability, T/C [29]: 79.9% | viability, T/C [30]: 77.8% | viability, T/C [13]: 96.3% | viability, T/C [14]: 78.4% | viability, T/C [15]: 73.8% | viability, T/C [16]: 70.8% | viability, T/C [31]: 83.5% | viability, T/C [32]: 73.3% | viability, T/C [17]: 90.3% | viability, T/C [18]: 88.9% | viability, T/C [19]: 68.9% | viability, T/C [20]: 67.1% | viability, T/C [33]: 65.2% | viability, T/C [34]: 83.9% | viability, T/C [21]: 103% | viability, T/C [22]: 90.3% | viability, T/C [23]: 74.3% | viability, T/C [24]: 68.5% | viability, T/C [35]: 69.1% | viability, T/C [36]: 95.5%
